Reference: paper PMC7998731, “Pharmacokinetic Characterization of Supinoxin and Its Physiologically Based Pharmacokinetic Modeling in Rats” (Pharmaceutics, 2021)
Read-outs that look alike come from different tables or passages of the source.

Key:
[1] = In vivo pharmacokinetic study, intravenous administration to rats; conditions: rat, plasma; for concentration at 0.083 h / concentration at 0.25 h / concentration at 0.5 h / concentration at 1 h / concentration at 3 h / concentration at 7 h / concentration at 10 h / concentration at 24 h: fasted male SD rats; for concentration at 24 h: BQL treated as 0; for AUC(0-inf) / AUC(0-t) / MRT / clearance / half-life / Vd: male
Procedure: (§1) Male Sprague Dawley (SD) rats, 6–7 weeks old, were purchased from Orient Bio Inc. (Seongnam-si, Korea) and were used in all in vivo studies. The animals were maintained at a temperature of 20–26 °C with a 12 h light/dark cycle and a relative humidity of 40–60%. The experimental protocols involving the animals used in this study were reviewed by the Animal Care and Use Committee of Chungnam National University (CNU-00576, Daejeon, Korea; approval date: 13 March 2015).
(§2) Supinoxin was dissolved in a vehicle (10% DMSO, 10% Tween 80, 40% PEG 400, and 40% saline). In single doses, the administration routes involved an intravenous bolus via the tail vein (n = 4–5) and an oral gavage dose (n = 4–5). The dosing volume was 2 mL per kg body weight, and the dosing range was 0.5, 1, and 5 mg/kg. Blood samples (200 µL) were collected from the jugular vein at 0.083 (intravenous only), 0.25, 0.5, 1, 3, 7, 10, and 24 h after dosing, using a heparinized syringe to ensure anticoagulation. During blood sampling, rats were placed in a restrainer (Nagai-CFS-1S; NMS, Tokyo, Japan). For the separation of plasma fractions, all blood samples were centrifuged at 17,600× g for 5 min. The samples were stored at −20 °C until analysis. When obtaining tissue concentrations to calculate the tissue-to-plasma partition ratio was necessary, samples of nine tissues (i.e., adipose, heart, muscle, kidney, brain, liver, spleen, gut, and lung) were collected at 0.33, 1, 3, 7, and 24 h after 5 mg/kg intravenous administration of supinoxin (n = 3).
(§3) The peak concentration (Cmax) and the time to reach Cmax (Tmax) were obtained directly from individual plasma concentration–time profiles. Linear trapezoidal rule was used to calculate the areas under the plasma concentration–time curve (AUC) and the first moment curve (AUMC), while the terminal half-life (T1/2) was calculated using 0.693/λ, where λ represents the slope of the log-transformed concentration–time profiles of the terminal phase. The systemic clearance (CL), mean residence time (MRT), and the volume of the distribution at the steady state (Vss) were calculated as follows: dose/AUC, AUMC/AUC, and MRT·CL, respectively. To calculate the absolute oral bioavailability (F) we divided the AUC obtained following oral administration by that obtained following intravenous administration of the respective dose.
(§4) To determine supinoxin concentrations in plasma, feces, and urine, we used a previously reported LC–MS/MS assay using DGG-200064 as an internal standard (IS). Briefly, an aliquot (50 μL) of IS solution (concentration 100 ng/mL) was added to 50 μL of plasma, feces, or urine sample, following which 400 μL of acetonitrile containing 0.1% formic acid was added. After vigorous vortexing for 10 min, the extract was centrifuged at 17,600 rpm for 10 min at 4 °C, and the supernatant was placed in an autosampler vial. An aliquot of 5 µL was then injected into the analytical column for chromatographic separation; the analytical system consisted of a 1200 series HPLC system (Applied Biosystems, Foster City, CA, USA) equipped with a turbo-electrospray interface in positive ionization mode.

[2] = cited from earlier work; for Plasma concentration, Mean: fasted male SD rats, oral 1 mg/kg, ref 15 (Table 2 footnote)
[3] = In vivo pharmacokinetic study, oral administration to rats; conditions: Sprague-Dawley, rat, plasma; for concentration at 0.25 h / concentration at 0.5 h / concentration at 1 h / concentration at 3 h / concentration at 7 h / concentration at 10 h / concentration at 24 h: fasted male SD rats; for concentration at 24 h: BQL treated as 0; for AUC(0-inf) / AUC(0-t) / Cmax / MRT / Tmax / half-life / bioavailability: male, rats, oral
Procedure: as §1, §2, §3, §4

[4] = Sprague-Dawley, intravenous 0.5 mg/kg
[5] = Sprague-Dawley, intravenous 5 mg/kg
[6] = Sprague Dawley, rats, intravenous, 0.5 mg/kg
[7] = Sprague Dawley, rats, intravenous, 5 mg/kg
[8] = rats, oral, 1 mg/kg, Jeong, J.-W. et al., 2017

concentration at 0.083 h [1, 4]: 313 ng/mL
concentration at 0.25 h [1, 4]: 255 ng/mL
concentration at 0.5 h [1, 4]: 206 ng/mL
concentration at 1 h [1, 4]: 140 ng/mL
concentration at 3 h [1, 4]: 79.3 ng/mL
concentration at 7 h [1, 4]: 20.8 ng/mL
concentration at 10 h [1, 4]: 8.2 ng/mL
concentration at 24 h [1, 4]: 0.3 ng/mL
concentration at 0.083 h [1, 5]: 2380 ng/mL
concentration at 0.25 h [1, 5]: 1640 ng/mL
concentration at 0.5 h [1, 5]: 1310 ng/mL
concentration at 1 h [1, 5]: 907 ng/mL
concentration at 3 h [1, 5]: 600 ng/mL
concentration at 7 h [1, 5]: 234 ng/mL
concentration at 10 h [1, 5]: 130 ng/mL
concentration at 24 h [1, 5]: 5.8 ng/mL
AUC(0-inf) [1, 6]: 727 ± 177 ng·h/mL
AUC(0-t) [1, 6]: 715 ± 180 ng·h/mL
MRT [1, 6]: 2.92 ± 0.65 h
clearance ([1]; Sprague Dawley, rats, intravenous, 0.5 mg/kg, read-out: CL (converted)): 11.9 mL/min/kg
half-life ([1]; Sprague Dawley, rats, intravenous, 0.5 mg/kg, read-out: T1/2 (converted)): 2.54 ± 0.83 h
AUC(0-inf) [1, 7]: 6130 ± 1750 ng·h/mL
AUC(0-t) [1, 7]: 6090 ± 1760 ng·h/mL
MRT [1, 7]: 4.07 ± 1.37 h
clearance ([1]; Sprague Dawley, rats, intravenous, 5 mg/kg, read-out: CL (converted)): 14.4 mL/min/kg
half-life ([1]; Sprague Dawley, rats, intravenous, 5 mg/kg, read-out: T1/2 (converted)): 2.8 ± 0.71 h
clearance ([1]; Sprague-Dawley, PBPK input parameter, Determined, from intravenous administration study, read-out: In vivo clearance (CLiv)): 3.16 mL/min
Vd ([1]; Sprague-Dawley, rats, intravenous, 0.5 mg/kg, read-out: Vss): 2.11 ± 0.803 L/kg
Vd ([1]; Sprague-Dawley, rats, intravenous, 5 mg/kg, read-out: Vss): 3.5 ± 1.45 L/kg
Vd ([1]; Sprague-Dawley, rats, intravenous, range over doses 0.5–5 mg/kg, read-out: steady state volume of distribution): 2.04 to 3.5 L/kg
clearance ([1]; Sprague-Dawley, rats, intravenous, range over doses 0.5–5 mg/kg, read-out: systemic clearance): 11.5 to 14.4 mL/min/kg
half-life ([1]; Sprague-Dawley, rats, intravenous, range over doses 0.5–5 mg/kg, read-out: terminal half-life): 2.54 to 2.8 h
concentration at 0.25 h ([3]; oral 0.5 mg/kg): 51 ng/mL
concentration at 0.5 h ([3]; oral 0.5 mg/kg): 99.6 ng/mL
concentration at 1 h ([3]; oral 0.5 mg/kg): 99.6 ng/mL
concentration at 3 h ([3]; oral 0.5 mg/kg): 58 ng/mL
concentration at 7 h ([3]; oral 0.5 mg/kg): 13.1 ng/mL
concentration at 10 h ([3]; oral 0.5 mg/kg): 5 ng/mL
concentration at 24 h ([3]; oral 0.5 mg/kg): 0 ng/mL
concentration at 0.25 h ([3]; oral 5 mg/kg): 474 ng/mL
concentration at 0.5 h ([3]; oral 5 mg/kg): 676 ng/mL
concentration at 1 h ([3]; oral 5 mg/kg): 800 ng/mL
concentration at 3 h ([3]; oral 5 mg/kg): 480 ng/mL
concentration at 7 h ([3]; oral 5 mg/kg): 113 ng/mL
concentration at 10 h ([3]; oral 5 mg/kg): 40.4 ng/mL
concentration at 24 h ([3]; oral 5 mg/kg): 0.5 ng/mL
AUC(0-inf) ([3]; 0.5 mg/kg): 418 ± 133 ng·h/mL
AUC(0-t) ([3]; 0.5 mg/kg): 402 ± 130 ng·h/mL
Cmax ([3]; 0.5 mg/kg): 108 ± 36 ng/mL
MRT ([3]; 0.5 mg/kg): 2.99 ± 0.71 h
Tmax ([3]; 0.5 mg/kg): 0.8 ± 0.274 h
half-life ([3]; 0.5 mg/kg): 2 ± 0.5 h
bioavailability ([3]; 0.5 mg/kg, read-out: F (absolute oral bioavailability)): 57.4 ± 18.3%
AUC(0-inf) ([3]; 5 mg/kg): 3510 ± 1420 ng·h/mL
AUC(0-t) ([3]; 5 mg/kg): 3480 ± 1450 ng·h/mL
Cmax ([3]; 5 mg/kg): 823 ± 340 ng/mL
MRT ([3]; 5 mg/kg): 3.17 ± 0.36 h
Tmax ([3]; 5 mg/kg): 0.75 ± 0.289 h
half-life ([3]; 5 mg/kg): 2.02 ± 0.33 h
bioavailability ([3]; 5 mg/kg, read-out: F (absolute oral bioavailability)): 57.2 ± 23.1%
bioavailability ([3]; range over doses 0.5–5 mg/kg, read-out: absolute oral bioavailability): 56.9 to 57.4%
Structure (SMILES): COc1cc(OC)cc(N2CCN(C(=O)Nc3nc4cc(F)ccc4nc3OC)CC2)c1 [supinoxin, 1-(3,5-Dimethoxyphenyl)-4-[(6-Fluoro-2-Methoxyquinoxalin-3-yl) Aminocarbonyl] Piperazine]
Plasma concentration, Mean ([2]; 0.25 h): 211.9 ng/mL
Plasma concentration, Mean ([2]; 0.5 h): 233.6 ng/mL
Plasma concentration, Mean ([2]; 1 h): 231.2 ng/mL
Plasma concentration, Mean ([2]; 3 h): 122.2 ng/mL
Plasma concentration, Mean ([2]; 7 h): 34.9 ng/mL
Plasma concentration, Mean ([2]; 10 h): 13.7 ng/mL
Plasma concentration, Mean ([2]; 24 h, BQL treated as 0): 0.3 ng/mL
AUCinf [2, 8]: 1010 ± 420 ng·h/mL
AUClast [2, 8]: 984 ± 407 ng·h/mL
Cmax [2, 8]: 250 ± 93 ng/mL
F (absolute oral bioavailability) [2, 8]: 56.9 ± 23.7%
MRT [2, 8]: 3.15 ± 1.26 h
T1/2 [2, 8]: 2.11 ± 0.91 h
Tmax [2, 8]: 0.650 ± 0.337 h
